In patent US20230145200A1, “COMPOSITIONS AND METHODS OF TREATING CANCER” (Tillead Therapeutics, Inc., priority 2020, published 2023):
Where a chain is given by its changes, count along the chain named. Entries after “also recorded” stand apart in the source; their conditions may differ.

How the values were obtained:
[1] = tested on: MC38 cells; test: Apoptosis flow cytometry assay (FITC Annexin V/PI); format: cell-based, murine; details: for apoptosis induction in MC38 cells: agent alone: Venetoclax 3 μM, Doxorubicin 1 μM, Docetaxel 10 μM, Simvastatin 10 μM
Method: Cell lines and drugs: MC38 and B16 cell lines were derived from C57BL6 murine colon adenocarcinoma and melanoma cells, respectively. The cells were maintained in Dulbecco's modified Eagle's medium (DMEM) supplemented with 10% heat-inactivated fetal bovine serum (FBS) and 100 U/mL penicillin/streptomycin. The CT26 cells were derived from murine colon adenocarcinoma cells and cultured in RPMI1640 with 10% FBS and 2 mM GlutaMAX.
Apoptosis flow cytometry assay: FITC Annexin V Apoptosis Detection Kit with PI (BioLegend) was used for apoptosis detection. The MC38 cells were seeded in 24-well plate with 1×10^5 cells/well and cultured overnight. […] After 24 hours treatment, cells were collected and dissociated as single cell suspensions for Annexin V/PI staining. In briefing, cells were washed twice with cold BioLegend's Cell Staining Buffer, then resuspended in […] Annexin V Binding Buffer. […] FITC Annex V and […] Propidium Iodide (PI) Solution were added in each sample. The samples were gently vortexed and incubated for 15 minutes at room temperature in the dark. Wash the samples with Cell Staining Buffer one time and resuspend cells in […] Cell Staining Buffer for flow cytometry analysis. The data were recorded on BD Accuri™ C6 plus flow Cytometer and analyzed with FlowJo software.

[2] = tested on: IFNβ; test: Interferon-beta (IFNβ) ELISA assay of MC38 cell culture supernatants; format: cell-based, murine; details: 24 hours
Method: The concentration of IFNβ was measured with VeriKine-HS Interferon Beta Serum ELISA Kit (PBL Assay Science) in accordance with the manufacturer's instruction. The data of absorbance was recorded at 450 nm by using BioTek synergy 4 plate reader and analyzed with GraphPad software.

[3] = tested on: B16 model; test: In vivo tumor growth study, B16 model; parameters: species or system mice; details: emricasan amine salt intratumorally 5 mpk and 10 mpk q.d 4 days, FIG. 19
Method: (§1) In vivo studies: Female C57BL6 and Balb/C mice of 9 weeks of age were obtained from the Jackson lab, ME. Passages were made twice weekly with a 1:2 split and cultured in DMEM:F12 supplemented with 10% FBS (HyClone, Ft. Collins, Colo.). For inoculation, approximately 5-8×10^5 cells were suspended in 100 μL of PBS (Becton Dickinson Labware, Bedford, Mass.) and injected subcutaneously into the flanks of mice. Most mice developed palpable tumors within 5 days of inoculation. Tumor bearing mice are grouped in cohorts of 5-8 mice for dosing studies. […] Baseline tumor volumes were established and dosing initiation began on day 0. Emricasan was administered as a salt intratumorally or interperitoneally for 3-4 days. If docetaxel was used, it was administered interperitoneally or intravenously in Tween80/PEG300 or Tween80/ethanol with PBS the day before emricasan was given. Emricasan and docetaxel were co-formulated in Tween80/PEG300 and co-administered intratumorally after diluting with PBS. Tumor volumes were measured twice a week using standard calipers and calculated as […], with the length and width defined as the long and short axes, respectively. Measurement of body weight was initiated on day 0 and repeated once a week.

[4] = tested on: MC38 model; test: In vivo tumor growth study, MC38 model; parameters: species or system mice
Method: In vivo studies: Female C57BL6 and Balb/C mice of 9 weeks of age were obtained from the Jackson lab, ME. Passages were made twice weekly with a 1:2 split and cultured in DMEM:F12 supplemented with 10% FBS (HyClone, Ft. Collins, Colo.). For inoculation, approximately 5-8×10^5 cells were suspended in 100 μL of PBS (Becton Dickinson Labware, Bedford, Mass.) and injected subcutaneously into the flanks of mice. Most mice developed palpable tumors within 5 days of inoculation. Tumor bearing mice are grouped in cohorts of 5-8 mice for dosing studies. Mice with tumor sizes of 50-100 mm^3 are randomized between treatment groups. Baseline tumor volumes were established and dosing initiation began on day 0. Emricasan was administered as a salt intratumorally or interperitoneally for 3-4 days. If docetaxel was used, it was administered interperitoneally or intravenously in Tween80/PEG300 or Tween80/ethanol with PBS the day before emricasan was given. Emricasan and docetaxel were co-formulated in Tween80/PEG300 and co-administered intratumorally after diluting with PBS. Tumor volumes were measured twice a week using standard calipers and calculated as […], with the length and width defined as the long and short axes, respectively. Measurement of body weight was initiated on day 0 and repeated once a week.

[5] = tested on: CT26 model; test: In vivo tumor growth study, CT26 model; parameters: species or system mice; details: emricasan amine salt intratumorally 5 mpk and 10 mpk q.d 4 days, FIG. 20
Method: as §1

[6] = tested on: PD-L1; test: PD-L1 expression flow cytometry assay; format: cell-based, murine; details: MC38 cells; 1 μM Docetaxel, 10 μM Emricasan, or the combination; 24 h; FIG. 21
Method: PD-L1 expression flow cytometry assay: Cell surface PD-L1 expression was detected by flow cytometry assay. The cells were plated in 24-well plates and treated with 1 μM Docetaxel, 10 μM Emricasan, and the combination of the two drugs. Untreated cells were used as a control. After 24 h of treatment, the cells were dissociated and harvested for PD-L1 staining with BioLegend PE anti-mouse PD-L1 antibody (MIH7 clone). The PD-L1 expression was measured in BD Accuri C6 Plus flow cytometer, The mean density of PD-L1 was analyzed by FlowJo V10 software.

[7] = target: T1, caspase-3 (Homo sapiens, UniProt P42574); test: Caspase activity in A549 tumor cells (FIG. 10b); format: cell-based; parameters: endogenous in cells; host or cells: A549 cells
T1 sequence (P42574 29-175 limits assumed): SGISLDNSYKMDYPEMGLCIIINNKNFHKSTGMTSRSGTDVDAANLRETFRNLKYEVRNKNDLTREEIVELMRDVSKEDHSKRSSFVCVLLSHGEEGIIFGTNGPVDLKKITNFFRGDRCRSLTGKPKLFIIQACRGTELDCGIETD
T1 sequence (P42574 176-277 limits assumed): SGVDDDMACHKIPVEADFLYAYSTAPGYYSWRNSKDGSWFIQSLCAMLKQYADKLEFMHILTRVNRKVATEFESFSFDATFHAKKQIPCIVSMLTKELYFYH

[8] = target: T1, caspase-3; test: Caspase activity in MiaPaca-2 tumor cells (FIG. 10c); format: cell-based; parameters: endogenous in cells; host or cells: MiaPaca-2 cells
[9] = target: T2, caspase-3 (Mus musculus, UniProt P70677); test: Caspase-3 activity assay in MC38 cells; format: cell-based, murine
T2 construct: the cells were lysed in 25 μL 1× lysis buffer on ice for 20 min; endogenous in cells; host or cells: MC38 cells (lysate)
T2 sequence (P70677 29-175 limits assumed): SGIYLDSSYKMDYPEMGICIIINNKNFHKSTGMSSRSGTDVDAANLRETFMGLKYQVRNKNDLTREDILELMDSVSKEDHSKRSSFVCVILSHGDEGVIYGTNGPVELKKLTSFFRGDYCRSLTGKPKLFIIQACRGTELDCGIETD
T2 sequence (P70677 176-277 limits assumed): T1 sequence (P42574 176-277 limits assumed) with V3T, D5E, D6E, H10Q, A46S, Q50L, D53H, F77L, A79S
Method: Caspase-3 activity assay: Caspase-3 activity was measured by using Sigma Caspase 3 Assay Kit, Fluorimetric. In brief, MC38 cells were cultured in 96-well plates and treated with Docetaxel and Docetaxel/Emricasan combination, respectively. Dose-dependent effect of Docetaxel on caspase-3 activity was tested in MC38 cells; Docetaxel/Emricasan combination treatment was applied to reverse Docetaxel induced caspase-3 activity. After 24 h drug treatment, the cells were lysed in 25 μL 1× lysis buffer on ice for 20 min, then added 200 μL of 16.7 μM Ac-DEVD-AMC substrate solution to incubate at RT in the dark for 30 min. The fluorescent signals were read in BioTek Synergy 4 plate reader at excitation 360 nm and emission 460 nm.

[10] = tested on: MiaPaca-2; test: Tumor cell killing / cytotoxicity, MiaPaca-2 (FIG. 11c); format: cell-based; details: with 10 μM of emricasan
[11] = tested on: MC38 cells; test: Tumor cell killing / cytotoxicity, MC38 (FIG. 11a); format: cell-based, murine
[12] = tested on: A549; test: Tumor cell killing / cytotoxicity, A549 (FIG. 11b); format: cell-based; details: with 10 μM of emricasan
[13] = agent alone: simvastatin 10 μM, venetoclax 3 μM, doxorubicin 1 μM, docetaxel 10 μM

COc1cccc2c1C(=O)c1c(O)c3c(c(O)c1C2=O)C[C@@](O)(C(=O)CO)C[C@@H]3O[C@H]1C[C@H](N)[C@H](O)[C@H](C)O1 [doxorubicin]
apoptosis induction in MC38 cells ([1]; 24 hours): induced substantial apoptosis | IFNβ production in MC38 cells [2, 13]: slightly reduced IFNβ production

C[C@H](NC(=O)C(=O)Nc1ccccc1C(C)(C)C)C(=O)N[C@@H](CC(=O)O)C(=O)COc1c(F)c(F)cc(F)c1F [emricasan, (S)-3-((S)-2-(2-((2-(tert-butyl)phenyl)amino)-2-oxoacetamido)propanamido)-4-oxo-5-(2,3,5,6-tetrafluorophenoxy)pentanoic acid]
tumor control efficacy [3]: produced tumor control efficacy | apoptosis induced by docetaxel ([1]; addition of 10 μM emricasan to Docetaxel 10 μM, 24 hours, FIG. 5): significantly reduced the apoptosis | apoptosis induced by doxorubicin ([1]; addition of 10 μM emricasan to Doxorubicin 1 μM, 24 hours, FIG. 4): significantly reduced the apoptosis | apoptosis induced by simvastatin ([1]; addition of 10 μM emricasan to Simvastatin 10 μM, 24 hours, FIG. 2): significantly reduced the apoptosis | apoptosis induced by venetoclax ([1]; addition of 10 μM emricasan to Venetoclax 3 μM, 24 hours, FIG. 3): significantly reduced the apoptosis | apoptosis in MC38 cells ([1]; emricasan alone, 24 hours treatment, FIG. 1): partially blocked the apoptosis | rejection of rechallenged tumor in cured mice ([4]; cured mice from the FIG. 15 study, rechallenged, FIG. 16): able to reject rechallenged tumor; also recorded: able to reject rechallenged tumors more efficiently | systemic tumor control, systemic emricasan added to intravenous docetaxel ([4]; docetaxel intravenous 50 mpk single dose, emricasan intraperitoneal 20 mpk b.i.d 3 days after docetaxel, FIG. 18): improved the systemic tumor control of intravenously administered docetaxel | distal tumor control ([4]; emricasan alone intratumorally 10 mpk q.d 4 days, FIG. 13): moderate | tumor control at the site of injection ([4]; emricasan alone intratumorally 10 mpk q.d 4 days, small MC38 tumors (~50 mm^3), FIG. 12): able control small MC38 tumors | number of cured mice ([4]; study of FIG. 15: docetaxel intravenous 30 mpk single dose, emricasan intratumoral 10 mpk q.d 4 days): 5 mice | tumor control efficacy [5]: produced tumor control efficacy | PD-L1 expression on tumor cells [6]: upregulated the PD-L1 expression | inhibition of caspase activity in tumor cells ([7]; 10 μM of emricasan, docetaxel-treated A549): fully inhibiting the caspase activity | inhibition of caspase activity in tumor cells ([8]; 10 μM of emricasan, docetaxel-treated MiaPaca-2): fully inhibiting the caspase activity | IFNβ production in docetaxel treated MC38 cells ([2]; addition of 10 μM emricasan to docetaxel 10 μM, FIG. 9): significantly enhanced the IFNβ production | IFNβ production in doxorubicin treated MC38 cells ([2]; addition of 10 μM emricasan to doxorubicin 1 μM, FIG. 8): significantly enhanced the IFNβ production | IFNβ production in simvastatin treated MC38 cells ([2]; addition of 10 μM emricasan to simvastatin 10 μM, FIG. 7): significantly enhanced the IFNβ production | IFNβ production in MC38 cells ([2]; emricasan alone, FIG. 6): slightly enhanced the IFNβ production | inhibition of caspase activity in tumor cells ([9]; 10 μM of emricasan, docetaxel-treated MC38 cells, FIG. 10a): fully inhibiting the caspase activity | concentration at which emricasan began to effectively inhibit the caspase-3 activity ([9]; tumor cells, FIG. 10a-c): ~1 µM | concentration at which emricasan reached the maximum activity (caspase-3 inhibition) ([9]; tumor cells, FIG. 10a-c): ~10 µM

CC(=O)O[C@@]12CO[C@@H]1C[C@H](O)[C@@]1(C)C(=O)[C@H](O)C3=C(C)[C@@H](OC(=O)[C@H](O)[C@@H](NC(=O)OC(C)(C)C)c4ccccc4)C[C@@](O)([C@@H](OC(=O)c4ccccc4)[C@H]21)C3(C)C [docetaxel]
apoptosis induction in MC38 cells ([1]; 24 hours): induced substantial apoptosis | tumor control, systemic docetaxel added to intratumoral emricasan ([4]; docetaxel 30 mpk single dose intraperitoneal (FIG. 14) or intravenous (FIG. 15), emricasan intratumoral 10 mpk q.d 3-4 days after docetaxel): improved tumor control of emricasan | docetaxel concentration killing tumor cells more efficiently [10]: ~1 µM | PD-L1 expression on tumor cells [6]: upregulating PD-L1 expression | docetaxel concentration activating caspase most efficiently ([7]; A549): ~1 µM | docetaxel concentration activating caspase most efficiently ([8]; MiaPaca-2): ~1 µM | docetaxel concentration killing tumor cells more efficiently ([11]; MC38, with 10 μM of emricasan, FIG. 11a): ~1 µM | cytotoxicity in several tumor cells ([11]; several tumor cells (FIG. 11a-c: MC38, A549, MiaPaca-2)): showed cytotoxicity | IFNβ production in MC38 cells [2, 13]: slightly reduced IFNβ production | docetaxel concentration killing tumor cells more efficiently [12]: ~1 µM | docetaxel concentration activating caspase most efficiently ([9]; MC38 cells, 24 h, FIG. 10a): ~1 µM
